{"source": "paper PMC12446476", "about": "(Nature Communications, 2025)", "key": {"S. aureus ATCC 29213": {"system": "S. aureus ATCC 29213", "assay": "S. aureus neutropenic murine thigh infection model", "type": "in vivo, mouse", "conditions": "for reduction in thighs: dosed as Debio 1453 P; for Mean Diff. 0h vs. treatment, log10 CFU: S. aureus ATCC 29213, daily dose", "method": "The S. aureus neutropenic murine thigh infection model was performed in accordance with the Guide for Care and Use of Laboratory Animals[75]. Animal rooms were maintained at a temperature range of 20–24 °C and humidity between 30% and 70%, with 12 h light/dark cycles. Female ICR mice (BioLASCO Taiwan Co., Ltd.) were rendered neutropenic via IP injection of cyclophosphamide four days before infection (150 mg/kg) and again one day before infection (100 mg/kg). Animals were anaesthetised with isoflurane (3–5%), then inoculated intramuscularly with S. aureus ATCC 29213 (~1 × 10^5 CFU/mouse). […] Animals were sacrificed via CO2 asphyxiation at either 2 h (baseline), 26 and/or 50 h post-infection. Thigh tissues were harvested and homogenised in 3 mL sterile PBS (pH 7.4). Bacterial burdens were determined by performing 10-fold serial dilutions and plating on nutrient agar plates."}, "[1]": {"system": "intracellular N. gonorrhoeae", "assay": "Intracellular killing in HeLa229 cells", "type": "cell-based, Neisseria gonorrhoeae", "conditions": "for reduction of intracellular bacteria: within 24 h; for Colony forming units (CFU) of N. gonorrhoeae internalised in HeLa229 cells, colony count: dilution 0, replicates 1-3, counts 1-2", "method": "Intracellular killing was assessed within HeLa229 cells (European Collection of Authenticated Cell Cultures, London, UK) that were seeded at ~3 × 10^5 cells/mL and grown to 70–80% confluence in RPMI-glutamine media supplemented with 10% (v/v) heat-inactivated fetal bovine serum (FBS, Gibco, MA, USA). Cells were incubated at 37 °C with 5% CO2 for 24 h, then washed with serum-free RPMI-1640 prior to infection. N. gonorrhoeae was scraped from agar plates and resuspended in Dulbecco’s Phosphate Buffered Saline (DPBS, Sigma-Aldrich), pelleted, then resuspended in RPMI with 2% FBS. Bacterial suspensions were used to infect HeLa229 cells at a multiplicity of infection of 100:1. Plates were briefly centrifuged (500 × g for 5 min), then incubated for one hour. This incubation and all subsequent incubations were performed at 37 °C with 5% CO2. Non-adherent cells were removed by washing with serum-free RPMI, and the remaining extracellular bacteria were killed via resuspension in RPMI-glutamine supplemented with 2% FBS and 200 μg/mL gentamycin and incubation for one hour. […] Azithromycin-treated samples were included for control/comparison. […] Samples were diluted and plated onto chocolate II agar for viable bacteria quantification. Intracellular killing assays were performed at Microbiologics, Kalamazoo, MI, USA, using a method adapted from previous studies[68],[69]."}, "N. gonorrhoeae": {"system": "N. gonorrhoeae", "assay": "MIC determination, agar dilution (CLSI)", "type": "cell-based, Neisseria gonorrhoeae", "conditions": "for MIC: Neisseria gonorrhoeae", "procedure,_shortened": "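For N. gonorrhoeae, WHO 2024 reference strains served as quality control, only whole doubling-dilution MICs were reported, and isolates were classified by EUCAST v14.0 breakpoints or ECOFF. Time-kill assays followed CLSI in Columbia broth with 1% IsoVitaleX, and viable counts came from plating serial dilutions on GC agar with IsoVitaleX.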"}}, "note": "Where “and” joins values, the source holds several entries; their conditions need not be identical. Equal values may be shown once. Read-outs that look alike come from different tables or passages of the source."}
{"smiles": "Cc1c(CN(C)C(=O)/C=C/c2cnc3c(c2)N[C@H](C)[C@H](O)C(=O)N3)oc2ccccc12", "note": "[Debio 1453]", "values": [{"measurement": "reduction in thighs", "setting": "S. aureus ATCC 29213; 24 h", "result": "> 1", "unit": "log10CFU/mL"}, {"measurement": "reduction in thighs", "setting": "S. aureus ATCC 29213; 48 h", "result": "> 2", "unit": "log10CFU"}, {"measurement": "Mean Diff. 0h vs. treatment, log10 CFU", "setting": "S. aureus ATCC 29213; 20 µg/mL Debio 1453, 24h", "result": -1.552}, {"measurement": "Mean Diff. 0h vs. treatment, log10 CFU", "setting": "S. aureus ATCC 29213; 20 µg/mL Debio 1453, 48h", "result": -2.396}, {"measurement": "Mean Diff. 0h vs. treatment, log10 CFU", "setting": "S. aureus ATCC 29213; 40 µg/mL Debio 1453, 24h", "result": -0.054}, {"measurement": "Mean Diff. 0h vs. treatment, log10 CFU", "setting": "S. aureus ATCC 29213; 40 µg/mL Debio 1453, 48h", "result": -1.464}, {"measurement": "Mean Diff. 0h vs. treatment, log10 CFU", "setting": "S. aureus ATCC 29213; 60 µg/mL Debio 1453, 24h", "result": 1.22}, {"measurement": "Mean Diff. 0h vs. treatment, log10 CFU", "setting": "S. aureus ATCC 29213; 60 µg/mL Debio 1453, 48h", "result": 1.476}, {"measurement": "Mean Diff. 0h vs. treatment, log10 CFU", "setting": "S. aureus ATCC 29213; 80 µg/mL Debio 1453, 24h", "result": 1.132}, {"measurement": "Mean Diff. 0h vs. treatment, log10 CFU", "setting": "S. aureus ATCC 29213; 80 µg/mL Debio 1453, 48h", "result": 2.658}, {"measurement": "Mean Diff. 0h vs. treatment, log10 CFU", "setting": "S. aureus ATCC 29213; 160 µg/mL Debio 1453, 24h", "result": 1.558}, {"measurement": "Mean Diff. 0h vs. treatment, log10 CFU", "setting": "S. aureus ATCC 29213; 160 µg/mL Debio 1453, 48h", "result": 2.682}, {"measurement": "reduction of intracellular bacteria", "setting": "[1]; ATCC 49226 in HeLa229 cells", "result": "≥ 3.1", "unit": "log10CFU/mL"}, {"measurement": "reduction of intracellular bacteria", "setting": "[1]; WHO X in HeLa229 cells", "result": "≥ 2.8", "unit": "log10CFU/mL"}, {"measurement": "Colony forming units (CFU) of N. gonorrhoeae internalised in HeLa229 cells, colony count", "setting": "[1]; isolate ATCC 49226, 3 hr, 2X MIC", "result": "39 CFU and 23 CFU and 37 CFU and 34 CFU and 36 CFU and 40 CFU"}, {"measurement": "Colony forming units (CFU) of N. gonorrhoeae internalised in HeLa229 cells, colony count", "setting": "[1]; isolate ATCC 49226, 3 hr, 4X MIC", "result": "53 CFU and 63 CFU and 32 CFU and 35 CFU and 51 CFU and 39 CFU"}, {"measurement": "Colony forming units (CFU) of N. gonorrhoeae internalised in HeLa229 cells, colony count", "setting": "[1]; isolate ATCC 49226, 3 hr, 8X MIC", "result": "26 CFU and 40 CFU and 33 CFU (2×) and 29 CFU and 38 CFU"}, {"measurement": "Colony forming units (CFU) of N. gonorrhoeae internalised in HeLa229 cells, colony count", "setting": "[1]; isolate ATCC 49226, 6 hr, 2X MIC", "result": 5, "unit": "CFU"}, {"measurement": "Colony forming units (CFU) of N. gonorrhoeae internalised in HeLa229 cells, colony count", "setting": "[1]; isolate ATCC 49226, 6 hr, 4X MIC", "result": "5 CFU (2×) and 6 CFU"}, {"measurement": "Colony forming units (CFU) of N. gonorrhoeae internalised in HeLa229 cells, colony count", "setting": "[1]; isolate ATCC 49226, 6 hr, 8X MIC", "result": "2 CFU and 6 CFU (2×)"}, {"measurement": "Colony forming units (CFU) of N. gonorrhoeae internalised in HeLa229 cells, colony count", "setting": "[1]; isolate ATCC 49226, 10 hr, 2X MIC", "result": 0, "unit": "CFU"}, {"measurement": "Colony forming units (CFU) of N. gonorrhoeae internalised in HeLa229 cells, colony count", "setting": "[1]; isolate ATCC 49226, 10 hr, 4X MIC", "result": "1 CFU (3×) and 0 CFU (3×)"}, {"measurement": "Colony forming units (CFU) of N. gonorrhoeae internalised in HeLa229 cells, colony count", "setting": "[1]; isolate ATCC 49226, 10 hr, 8X MIC", "result": 0, "unit": "CFU"}, {"measurement": "Colony forming units (CFU) of N. gonorrhoeae internalised in HeLa229 cells, colony count", "setting": "[1]; isolate ATCC 49226, 24 hr, 2X MIC", "result": 0, "unit": "CFU"}, {"measurement": "Colony forming units (CFU) of N. gonorrhoeae internalised in HeLa229 cells, colony count", "setting": "[1]; isolate ATCC 49226, 24 hr, 4X MIC", "result": 0, "unit": "CFU"}, {"measurement": "Colony forming units (CFU) of N. gonorrhoeae internalised in HeLa229 cells, colony count", "setting": "[1]; isolate ATCC 49226, 24 hr, 8X MIC", "result": 0, "unit": "CFU"}, {"measurement": "Colony forming units (CFU) of N. gonorrhoeae internalised in HeLa229 cells, colony count", "setting": "[1]; isolate NCTC 13820, 3 hr, 2X MIC", "result": "27 CFU and 24 CFU (2×)"}, {"measurement": "Colony forming units (CFU) of N. gonorrhoeae internalised in HeLa229 cells, colony count", "setting": "[1]; isolate NCTC 13820, 3 hr, 4X MIC", "result": "25 CFU and 30 CFU and 34 CFU"}, {"measurement": "Colony forming units (CFU) of N. gonorrhoeae internalised in HeLa229 cells, colony count", "setting": "[1]; isolate NCTC 13820, 3 hr, 8X MIC", "result": "29 CFU (2×) and 25 CFU and 31 CFU"}, {"measurement": "Colony forming units (CFU) of N. gonorrhoeae internalised in HeLa229 cells, colony count", "setting": "[1]; isolate NCTC 13820, 6 hr, 2X MIC", "result": "6 CFU and 12 CFU"}, {"measurement": "Colony forming units (CFU) of N. gonorrhoeae internalised in HeLa229 cells, colony count", "setting": "[1]; isolate NCTC 13820, 6 hr, 8X MIC", "result": "5 CFU (2×) and 0 CFU and 11 CFU"}, {"measurement": "Colony forming units (CFU) of N. gonorrhoeae internalised in HeLa229 cells, colony count", "setting": "[1]; isolate NCTC 13820, 10 hr, 2X MIC", "result": "1 CFU (2×) and 2 CFU and 0 CFU"}, {"measurement": "Colony forming units (CFU) of N. gonorrhoeae internalised in HeLa229 cells, colony count", "setting": "[1]; isolate NCTC 13820, 10 hr, 4X MIC", "result": "1 CFU (2×) and 2 CFU (3×) and 0 CFU"}, {"measurement": "Colony forming units (CFU) of N. gonorrhoeae internalised in HeLa229 cells, colony count", "setting": "[1]; isolate NCTC 13820, 10 hr, 8X MIC", "result": "2 CFU and 1 CFU (2×) and 0 CFU (2×)"}, {"measurement": "Colony forming units (CFU) of N. gonorrhoeae internalised in HeLa229 cells, colony count", "setting": "[1]; isolate NCTC 13820, 24 hr, 2X MIC", "result": 0, "unit": "CFU"}, {"measurement": "Colony forming units (CFU) of N. gonorrhoeae internalised in HeLa229 cells, colony count", "setting": "[1]; isolate NCTC 13820, 24 hr, 4X MIC", "result": 0, "unit": "CFU"}, {"measurement": "MIC range", "setting": "N. gonorrhoeae; 100 contemporary clinical N. gonorrhoeae isolates", "result": "0.008 to 0.125", "unit": "µg/mL"}, {"measurement": "MIC range", "setting": "N. gonorrhoeae; 2024 WHO N. gonorrhoeae reference strains", "result": "0.03 to 0.125", "unit": "µg/mL"}, {"measurement": "increase in MIC", "setting": "N. gonorrhoeae; 6804 clones with FabI L257F vs parent", "result": 4, "unit": "fold"}, {"measurement": "MIC", "setting": "N. gonorrhoeae; AR Bank0179-15 (AZM-R), mode of multiple measures, read-out: MIC", "result": 0.03, "unit": "µg/mL"}, {"measurement": "MIC", "setting": "N. gonorrhoeae; AR Bank0181-17 (AZM-R), mode of multiple measures, read-out: MIC", "result": 0.125, "unit": "µg/mL"}, {"measurement": "MIC", "setting": "N. gonorrhoeae; ATCC700825, read-out: MIC relevant for mutant selection assay, ATCC 700825", "result": 0.016, "unit": "µg/mL"}, {"measurement": "MIC", "setting": "N. gonorrhoeae; WHO F, agar dilution, read-out: MIC", "result": 0.03, "unit": "µg/mL"}, {"measurement": "MIC", "setting": "N. gonorrhoeae; WHO H, agar dilution, read-out: MIC", "result": 0.06, "unit": "µg/mL"}]}
